Publication PMC9148196 (The AAPS journal, 2021)

Target: P-glycoprotein (P-gp, MDR1) (Homo sapiens, UniProt P08183)
Assay: basal-to-apical [3H]digoxin flux in MDCK-hMDR1-cMDR1-KO cells, dose-response
Type: cell-based

P-glycoprotein (P-gp, MDR1), sequence (P08183 whole entry): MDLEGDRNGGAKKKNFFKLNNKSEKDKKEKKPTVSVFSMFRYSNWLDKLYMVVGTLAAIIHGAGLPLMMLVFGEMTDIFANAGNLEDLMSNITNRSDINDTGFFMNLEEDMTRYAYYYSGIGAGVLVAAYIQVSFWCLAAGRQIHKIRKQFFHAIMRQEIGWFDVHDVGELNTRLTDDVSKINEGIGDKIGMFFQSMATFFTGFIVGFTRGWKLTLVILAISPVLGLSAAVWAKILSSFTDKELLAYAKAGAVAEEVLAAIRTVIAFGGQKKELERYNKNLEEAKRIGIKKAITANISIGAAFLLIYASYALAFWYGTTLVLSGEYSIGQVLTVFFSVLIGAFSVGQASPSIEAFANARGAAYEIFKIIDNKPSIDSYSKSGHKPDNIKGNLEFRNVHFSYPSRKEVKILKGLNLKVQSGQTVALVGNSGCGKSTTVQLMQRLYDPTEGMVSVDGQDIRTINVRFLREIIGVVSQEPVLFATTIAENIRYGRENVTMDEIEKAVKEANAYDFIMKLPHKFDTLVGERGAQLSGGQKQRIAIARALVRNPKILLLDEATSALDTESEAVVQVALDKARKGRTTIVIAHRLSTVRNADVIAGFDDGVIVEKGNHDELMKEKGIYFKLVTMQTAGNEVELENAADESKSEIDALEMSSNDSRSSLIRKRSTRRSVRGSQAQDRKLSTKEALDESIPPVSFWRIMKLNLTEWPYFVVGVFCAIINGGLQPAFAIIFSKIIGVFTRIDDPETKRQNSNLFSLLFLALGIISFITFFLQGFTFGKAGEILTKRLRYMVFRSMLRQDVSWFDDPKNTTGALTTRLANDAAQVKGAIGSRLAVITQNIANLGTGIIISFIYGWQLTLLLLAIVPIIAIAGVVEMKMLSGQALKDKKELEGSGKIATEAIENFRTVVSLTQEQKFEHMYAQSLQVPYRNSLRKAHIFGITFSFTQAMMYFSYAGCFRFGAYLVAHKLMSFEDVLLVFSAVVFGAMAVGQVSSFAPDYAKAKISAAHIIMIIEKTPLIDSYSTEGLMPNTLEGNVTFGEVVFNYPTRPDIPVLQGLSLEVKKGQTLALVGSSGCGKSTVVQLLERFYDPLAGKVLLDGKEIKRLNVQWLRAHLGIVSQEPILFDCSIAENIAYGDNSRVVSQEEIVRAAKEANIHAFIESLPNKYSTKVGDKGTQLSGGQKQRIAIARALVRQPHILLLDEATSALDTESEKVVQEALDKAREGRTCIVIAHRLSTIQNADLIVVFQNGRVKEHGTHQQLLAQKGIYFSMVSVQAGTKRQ

An IC50 of 204 µM was found for `CCN(Cc1cccc(S(=O)(=O)O)c1)c1ccc(C(=C2C=CC(=[N+](CC)Cc3cccc(S(=O)(=O)[O-])c3)C=C2)c2ccc(S(=O)(=O)O)cc2)cc1` [Light green SF yellowish] in this work.
